Here are results for twelve molecules from paper PMC11604048, “Constrained TACC3 peptidomimetics for a non-canonical protein–protein interface elucidate allosteric communication in Aurora-A kinase” (Chemical Science, 2024).

For this experiment, the target named is T1, Aurora-A122-403-C290A/C393A (Homo sapiens, UniProt O14965, C290A/C393A).
T1 construct: Human Aurora-A kinase domain 122-403 wild-type or C290A/ C393A mutant; His tag (pET30TEV vector) (N, cleaved yes); made in house; host or cells: E. coli RIL, co-expressed with lambda phosphatase (Aurora-A); tracer by solid phase synthesis
T1 sequence (O14965 122-403 C290A/C393A): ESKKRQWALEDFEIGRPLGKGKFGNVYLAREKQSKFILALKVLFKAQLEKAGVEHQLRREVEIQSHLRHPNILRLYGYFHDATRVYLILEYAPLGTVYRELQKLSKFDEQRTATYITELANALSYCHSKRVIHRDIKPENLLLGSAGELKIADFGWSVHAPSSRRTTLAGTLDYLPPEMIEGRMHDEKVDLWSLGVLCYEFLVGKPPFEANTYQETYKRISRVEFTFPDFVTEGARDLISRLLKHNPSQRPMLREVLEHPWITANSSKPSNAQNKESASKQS
Kind of experiment: Competition FA assay against FAM-Ahx-TACC3 522-536 tracer. In kind it is binding. Here is the method:
Once completed, the mixtures were transferred into SPPS fritted reaction vessels and washed with H2O (5X, 10 mL, 2 min), DMF (5X, 5mL, 2 min) and DCM (5X, 5 mL, 2 min). The clean resins were dried under vacuum and the cyclic peptides cleaved from the resin following the general procedures described in previous sections. After Et2O precipitation, the crude materials were freeze-dried and redissolved in H2O/MeCN/TFA 90/10/0.1% v/v for preparative HPLC purification.
All disulfide peptide variants (ox) were produced in situ from their free-thiol solid precursors. For this, 2 mg of the pure peptide materials were dissolved in aqueous DMSO 33% v/v to a 10 mM concentration and were left open to air oxidation at room temperature overnight. […]
the peptides were employed for FA competition assays and IC50 evaluation without further additional […]
Fluorescence anisotropy (FA) assays – General information.
All assays were performed using 384-well plates(Greiner Bio-one, UK). […]
produced as described previously.11 All samples were prepared in 25 mM Tris,150 mM NaCl, 5 mM MgCl2, pH= 7.5, unless otherwise stated, and tested in triplicate using an EnVisionTM 2103 MultiLabel plate reader (PerkinElmer; Waltham, MA, USA).The parameters were set as follows: Excitation wavelength = 480 nm (30 nm bandwidth) and emission wavelength = 535 nm (30 nm bandwidth). Measured data were processed and analysed as previously described.12 Specifically, the perpendicular intensity (P) and parallel intensity (S) were subtracted by the control values and used for calculations of intensity and anisotropy using the following Equations 1, 2, 3, 4, and 5:
I= (2PG) + S Eq. (SI − 5)
r = (S − PG) Eq. (SI − 6)
L = r − r௠௜௡ Eq. (SI − 7)
y = (k + x + [FL]) − ඥ(k + x + [FL]2 − 4 ∗ x ∗ [FL]) Eq. (SI − 8)
y = r + r௠௜௡ − r௠௔௫ Eq. (SI − 9)
Where I = total intensity; P = perpendicular intensity; S = parallel intensity; G = instrument factor; r = anisotropy; Lb = ligand bound fraction; λ = change in intensity between bound and unbound states which […]
FA direct binding assays. […]
starting from 700 μM, diluted over 24 points in a 1/2 regime using the FAM-Ahx-labeled peptides at a final fixed concentration of 50 nM per well.
FA competition assays were performed using the same plates and buffer as described above, with the initial […]
14 points in a 1/2 regime. […]
after 4 h of incubation to enable appropriate sample equilibration. To prevent sample oxidation, when sulfhydryl peptides were analyzed DTT was added to the buffer (5 mM). In competition mode, the average anisotropy and the average standard deviation of the values derived from equation SI-6 were calculated and fit to a sigmoidal logistic model (equation SI-9) using Origin 2021. When using peptides for which full […]
For consistency, all the data […]
indicating the corresponding SD. […]

Where [1] appears, read: as E1, Table S3 (mal): maleimide-constrained species, WT value is an individual replica control assay, mean ± SD, n = 3, SD, read-out: IC50 (mal).
Where [2] appears, read: as E1, free-sulfhydryl (reduced) species, DTT 5 mM in buffer, WT control (+DTT), mean ± SD, n = 3, read-out: IC50 (red).
[3] abbreviates: as E1, free-sulfhydryl (reduced) species, DTT 5 mM in buffer, WT control (+DTT), mean ± SD, n = 3, SD, read-out: IC50 (red).

Where two headings read alike, the source gives them in different places. *1 amine or outer side, *2 acyl side, *3 side chain or, on linkers, in order; H or OH if unused. Where a SMILES comes first, the peptide text is derived from it. Bridges are numbered along the chain shown (N, C = ends). [ ]: non-standard residue; d: D form. Biphenyl(4,4'-CH2)2 = c1cc(-c2ccc(C[*:2])cc2)ccc1C[*:1]; Maleimide(3,4-diyl) = O=C1NC(=O)C([*:2])=C1[*:1]; Bpa = N[C@@H](Cc1ccc(C(=O)c2ccccc2)cc1)C(=O)O

In the case of `CC(=O)N[C@@H](CC(C)C)C(=O)N[C@@H](CCC(=O)O)C(=O)N[C@@H](CC(C)C)C(=O)N[C@@H](CCCCN)C(=O)N[C@@H](CCC(=O)O)C(=O)N[C@@H](CCC(=O)O)C(=O)N[C@H]1CSCc2ccc(cc2)-c2ccc(cc2)CSC[C@@H](C(=O)N[C@H](C(=O)N[C@@H](CC(C)C)C(N)=O)C(C)C)NC(=O)[C@H](C)NC(=O)[C@@H]2CCCN2C(=O)[C@H](CC(=O)O)NC(=O)[C@H](CCCNC(=N)N)NC(=O)[C@H](Cc2ccccc2)NC1=O` [TACC3 518-532 S524C/E530C (Bph)] (Ac-LELKEECFRDPACVL-NH2; linker 7-13 via Biphenyl(4,4'-CH2)2), the “fold enhanced inhibitory potency (IC50) compared to the WT peptide” value (competition FA IC50 ratio vs WT) was “up to 4 fold”.

`CC(=O)N[C@@H](CCC(=O)O)C(=O)N[C@@H](CCC(=O)O)C(=O)N[C@@H](CO)C(=O)N[C@@H](Cc1ccccc1)C(=O)N[C@@H](CCCNC(=N)N)C(=O)N[C@@H](CC(=O)O)C(=O)N1CCC[C@H]1C(=O)N[C@@H](C)C(=O)N[C@@H](CCC(=O)O)C(=O)N[C@H](C(=O)N[C@H]1CSC2=C(SC[C@@H](C(=O)N[C@@H](C)C(N)=O)NC(=O)[C@H]([C@@H](C)O)NC(=O)CNC1=O)C(=O)NC2=O)C(C)C` [TACC3 522-536 L532C/G535C (mal)] (Ac-EESFRDPAEVCGTCA-NH2; linker 11-14 via Maleimide(3,4-diyl)): the half-inhibitory concentration (IC50) (usually the midpoint of a concentration-inhibition curve) under setting [1] turned out to be 480 ± 60 µM.

`CC(=O)N[C@@H](CCC(=O)O)C(=O)N[C@@H](CCC(=O)O)C(=O)N[C@@H](CO)C(=O)N[C@@H](Cc1ccc(C(=O)c2ccccc2)cc1)C(=O)N[C@@H](CCCNC(=N)N)C(=O)N[C@@H](CC(=O)O)C(=O)N1CCC[C@H]1C(=O)N[C@@H](C)C(=O)N[C@@H](CCC(=O)O)C(=O)N[C@H](C(=O)N[C@@H](CC(C)C)C(=O)NCC(=O)N[C@H](C(=O)NCC(=O)N[C@@H](C)C(N)=O)[C@@H](C)O)C(C)C` [TACC3 522-536_(pBnz) -525F] (Ac-EES[Bpa]RDPAEVLGTGA-NH2): the IC50 is at least 500 µM.

Turning to `CC(=O)N[C@@H](CCC(=O)O)C(=O)N[C@@H](CCC(=O)O)C(=O)N[C@@H](CO)C(=O)N[C@@H](Cc1ccc(I)cc1)C(=O)N[C@@H](CCCNC(=N)N)C(=O)N[C@@H](CC(=O)O)C(=O)N1CCC[C@H]1C(=O)N[C@@H](C)C(=O)N[C@@H](CCC(=O)O)C(=O)N[C@H](C(=O)N[C@@H](CC(C)C)C(=O)NCC(=O)N[C@H](C(=O)NCC(=O)N[C@@H](C)C(N)=O)[C@@H](C)O)C(C)C` [TACC3 522-536_(4-I)525F], the IC50 (SD, read-out: IC50) was 34 ± 3 µM.

In the case of `CC(=O)N[C@@H](CCC(=O)O)C(=O)N[C@@H](CCC(=O)O)C(=O)N[C@@H](CO)C(=O)N[C@@H](Cc1ccccc1)C(=O)N[C@@H](CCCNC(=N)N)C(=O)N[C@@H](CC(=O)O)C(=O)N1CCC[C@H]1C(=O)N[C@@H](C)C(=O)N[C@@H](CCC(=O)O)C(=O)N[C@H](C(=O)N[C@@H](CS)C(=O)NCC(=O)N[C@H](C(=O)N[C@@H](CS)C(=O)N[C@@H](C)C(N)=O)[C@@H](C)O)C(C)C` [TACC3 522-536 L532C/G535C (red)] (Ac-EESFRDPAEVCGTCA-NH2), the 50% inhibitory concentration (IC50) under setting [2] is at least 500 µM.

In the case of `CC(=O)N[C@@H](CCC(=O)O)C(=O)N[C@@H](CCC(=O)O)C(=O)N[C@@H](CO)C(=O)N[C@@H](Cc1ccccc1)C(=O)N[C@@H](CCCNC(=N)N)C(=O)N[C@@H](CC(=O)O)C(=O)N1CCC[C@H]1C(=O)N[C@@H](C)C(=O)N[C@@H](CCC(=O)O)C(=O)N[C@H](C(=O)N[C@@H](CC(C)C)C(=O)N[C@@H](CS)C(=O)N[C@H](C(=O)NCC(=O)N[C@@H](CS)C(N)=O)[C@@H](C)O)C(C)C` [TACC3 522-536 G533C/A536C (red)] (Ac-EESFRDPAEVLCTGC-NH2), the IC50 under setting [3] is 80 ± 3 µM.

For the molecule `CC(=O)N[C@@H](CCC(=O)O)C(=O)N[C@@H](CCC(=O)O)C(=O)N[C@@H](CO)C(=O)N[C@@H](Cc1ccc(Br)cc1)C(=O)N[C@@H](CCCNC(=N)N)C(=O)N[C@@H](CC(=O)O)C(=O)N1CCC[C@H]1C(=O)N[C@@H](C)C(=O)N[C@@H](CCC(=O)O)C(=O)N[C@H](C(=O)N[C@@H](CC(C)C)C(=O)NCC(=O)N[C@H](C(=O)NCC(=O)N[C@@H](C)C(N)=O)[C@@H](C)O)C(C)C` [TACC3 522-536_(4-Br)525F], under “SD, read-out: IC50”, the IC50 worked out at 34 ± 6 µM.

Regarding `CC(=O)N[C@@H](CCC(=O)O)C(=O)N[C@@H](CCC(=O)O)C(=O)N[C@@H](CS)C(=O)N[C@@H](Cc1ccccc1)C(=O)N[C@@H](CCCNC(=N)N)C(=O)N[C@@H](CS)C(=O)N1CCC[C@H]1C(=O)N[C@@H](C)C(=O)N[C@@H](CCC(=O)O)C(=O)N[C@H](C(=O)N[C@@H](CC(C)C)C(=O)NCC(=O)N[C@H](C(=O)NCC(=O)N[C@@H](C)C(N)=O)[C@@H](C)O)C(C)C` [TACC3 522-536 S524C/D527C (red)] (Ac-EECFRCPAEVLGTGA-NH2), the half-inhibitory concentration (IC50) under setting [3] was found to be 309 ± 38 µM.

As to `CC(=O)N[C@@H](CCC(=O)O)C(=O)N[C@@H](CCC(=O)O)C(=O)N[C@@H](CO)C(=O)N[C@@H](Cc1ccc(C(F)(F)F)cc1)C(=O)N[C@@H](CCCNC(=N)N)C(=O)N[C@@H](CC(=O)O)C(=O)N1CCC[C@H]1C(=O)N[C@@H](C)C(=O)N[C@@H](CCC(=O)O)C(=O)N[C@H](C(=O)N[C@@H](CC(C)C)C(=O)NCC(=O)N[C@H](C(=O)NCC(=O)N[C@@H](C)C(N)=O)[C@@H](C)O)C(C)C` [TACC3 522-536_(4-CF3)525F], the IC50 (SD, read-out: IC50) was 170 ± 17 µM.

`CC(=O)N[C@@H](CCC(=O)O)C(=O)N[C@H]1CSSC[C@@H](C(=O)N[C@@H](CC(=O)O)C(=O)N2CCC[C@H]2C(=O)N[C@@H](C)C(=O)N[C@@H](CCC(=O)O)C(=O)N[C@H](C(=O)N[C@@H](CC(C)C)C(=O)NCC(=O)N[C@H](C(=O)NCC(=O)N[C@@H](C)C(N)=O)[C@@H](C)O)C(C)C)NC(=O)[C@H](Cc2ccccc2)NC(=O)[C@H](CO)NC1=O` [TACC3 522-536 E523C/R526C (ox)] (Ac-ECSFCDPAEVLGTGA-NH2; disulfide 2-5): the half-inhibitory concentration (IC50) (as E1, oxidised (disulfide) species made in situ from 10 mM stock in aqueous DMSO 33% v/v, air, overnight, WT control (+DMSO) given the same DMSO incubation, mean ± SD, n = 3, read-out: IC50 (ox)) is at least 500 µM.

On to `CC(=O)N[C@@H](CCC(=O)O)C(=O)N[C@@H](CCC(=O)O)C(=O)N[C@@H](CO)C(=O)N[C@@H](Cc1ccccc1)C(=O)N[C@@H](CCCNC(=N)N)C(=O)N[C@@H](CC(=O)O)C(=O)N1CCC[C@H]1C(=O)N[C@@H](C)C(=O)N[C@@H](CCC(=O)O)C(=O)N[C@@H](CS)C(=O)N[C@@H](CC(C)C)C(=O)NCC(=O)N[C@@H](CS)C(=O)NCC(=O)N[C@@H](C)C(N)=O` [TACC3 522-536 V531C/T534C (red)] (Ac-EESFRDPAECLGCGA-NH2), for which the half-inhibitory concentration (IC50) under setting [2] was at least 500 µM.

Regarding `CC(=O)N[C@@H](CCC(=O)O)C(=O)N[C@H]1CSC2=C(SC[C@@H](C(=O)N[C@@H](CC(=O)O)C(=O)N3CCC[C@H]3C(=O)N[C@@H](C)C(=O)N[C@@H](CCC(=O)O)C(=O)N[C@H](C(=O)N[C@@H](CC(C)C)C(=O)NCC(=O)N[C@H](C(=O)NCC(=O)N[C@@H](C)C(N)=O)[C@@H](C)O)C(C)C)NC(=O)[C@H](Cc3ccccc3)NC(=O)[C@H](CO)NC1=O)C(=O)NC2=O` [TACC3 522-536 E523C/R526C (mal)] (Ac-ECSFCDPAEVLGTGA-NH2; linker 2-5 via Maleimide(3,4-diyl)), the IC50 under setting [1] was 376 ± 28 µM.
